Test results as given in article PMC11653397, “Elucidating the Metabolism of Chiral PCB95 in Wildtype and Transgenic Mouse Models with Altered Cytochrome P450 Enzymes Using Intestinal Content Screening” (Chemical Research in Toxicology, 2024).
Values joined by “and” are separate entries in the source; they are usually repeats but may differ in a detail not shown here. Identical values can stand only once. Like-named read-outs stand apart in the source and are kept apart here.

Key:
[1] = Atropselective GC-ECD analysis (enantiomeric fraction) of PCB95 in intestinal content; type: in vivo, mice; conditions: for Enantiomeric fraction (EF) of PCB95 residues in the intestinal content: EF=AE1/(AE1+AE2), racemic standard EF 0.498±0.004, oral 1.0 mg/kg bw, 24 h
Experimental: Atropselective analyses of PCB95 were performed using an Agilent 7890A gas chromatograph with a ^63Ni-μECD detector and a Chirasil-Dex CB capillary column (25 m length, 250 μm inner diameter, 0.25 μm film thickness; Agilent, Santa Clara, CA, USA).[52] The following temperature program was used: 50 °C, hold for 1 min, 10 °C/min to 150 °C, hold for 65 min, 15 °C/min to 200 °C, and hold for 15 min. The injector and detector temperatures were 250 °C. Helium was used as carrier gas with a flow rate of 3.0 mL/min; argon-methane 5% was used as makeup gas with a 60 mL/min flow rate. The enantiomeric fraction (EF) values were calculated with the valley drop method[55] as EF = AE1/(AE1 + AE2), where AE1 and AE2 are the peak area of the first (E1) and the second eluting (E2) atropisomers, respectively.

[2] = GC-MS/MS levels of PCB95 and total hydroxylated metabolites in intestinal content of orally exposed mice; conditions: for concentration at 24 h: mouse, intestinal content (distal colon and rectum), po, 1 mg/kg
Experimental: The intestinal content samples used in this study were generated as part of a published study of the atropselective disposition of PCB95 and its hydroxylated metabolites in mice.[48] […] This PCB dose is frequently used in PCB developmental neurotoxicity studies in rodent models.[21],[49]−[52] Blank tissue samples to assess the background contamination with PCB95 were generated in parallel by administering corn oil alone to mice (1–3 mice per group). The animals were euthanized 24 h after exposure, and intestinal content samples from the dissected distal colon and rectum were collected. Samples were stored at −80 °C in separate plastic bags and shipped on dry ice to the University of Iowa for analysis.
PCB95 and total OH-PCB95 metabolite levels were determined in intestinal content samples after deconjugation of sulfate and glucuronide conjugates using published methods with modifications.[53] Briefly, intestinal content samples (50 ± 22 mg, n = 38) were homogenized with a TissueRuptor (Qiagen, Hilden, Germany) in 3 mL of 0.2 M sodium acetate buffer (pH 5) in glass tubes and spiked with 4-PCB52 sulfate (100 ng in DMSO) as a surrogate standard. After adding 50 μL of sulfatase (type H-2 from Helix pomatia, Sigma-Aldrich, Burlington, MA, USA), the samples were kept at 37 °C for 16 h in a shaking water bath. Samples were quenched with 1 mL of 6 M HCl, and the surrogate standards (50 ng of PCB117 in isooctane and 50 ng of 4′-159 in methanol) were added to the incubation system. Subsequently, 5 mL of 2-propanol and 5 mL of a 1:1 hexane–MTBE mixture (v/v) were added. The samples were inverted for 5 min and centrifuged at 1690g for 5 min to facilitate the phase separation. Next, the organic phases were transferred to new glass tubes with 3 mL of 1% KCl solution, the aqueous phases were re-extracted with 3 mL of hexane, and the organic phases were combined with the above extract. After inverting and centrifugation, the organic phases were collected, and the aqueous KCl phases were re-extracted with 3 mL of hexane. The combined extracts were evaporated to near dryness using a Savant SpeedVac SPD210 vacuum concentrator (Thermo Scientific, Waltham, MA, USA) coupled with an RVT5105 refrigerated vapor trap (Thermo Scientific, Waltham, MA, USA), and each sample was reconstituted with 0.5 mL of hexane.
Five drops of methanol and 0.5 mL of diazomethane (about 5 mmol) in diethyl ether were added to the intestinal content extracts to derivatize the OH-PCBs.[43] The samples were stored at 4 °C for approximately 16 h for derivatization, and excess diazomethane was removed under a gentle stream of nitrogen in a fume hood. The extract was reconstituted to 0.5 mL of dichloromethane and was loaded onto a glass SPE cartridge filled with 2 g of acidified silica gel (silica gel/H2SO4, 2:1, w/w) with 0.2 g of deactivated silica gel on the bottom.[14] The PCB and metabolites were eluted from the SPE cartridge with 14 mL of dichloromethane; the eluent was concentrated with a Savant SpeedVac SPD210 vacuum concentrator (Thermo Scientific) to near dryness, and the solvent was exchanged to 4 mL of hexane. The extracts were treated with 4 mL of concentrated sulfuric acid for further lipid removal.[14] The organic phase was concentrated to near dryness with a Savant SpeedVac SPD210 vacuum concentrator (Thermo Scientific) and spiked with an internal standard (50 ng of PCB204 in isooctane) for gas chromatographic quantification of PCB95 and its hydroxylated metabolites (as methylated derivatives).
PCB95 and metabolite determinations were conducted on an Agilent 7890B gas chromatograph equipped with an Agilent 7000D Triple Quad and an Agilent 7693 autosampler in the multiple reaction monitoring setting (GC–MS/MS).[14] Gas chromatographic separations were performed with an SPB-Octyl capillary column (30 m length, […], 0.25 μm film thickness; Supelco, Bellefonte, PA, USA).

[3] = mouse hepatic microsomes; cited from earlier work
CYP2A6 = test system: CYP2A6; parameters: method as in PMID 30576102, PMID 27989147; conditions: pooled human liver microsomes, recombinant cytochrome P450 enzymes; cited from earlier work
[4] = parameters: method as in doi:10.1016/0045-6535(75)90032-6; conditions: mice exposed orally to PCB95; cited from earlier work
[5] = parameters: method as in doi:10.1016/0045-6535(75)90032-6; conditions: rats exposed orally to PCB95; cited from earlier work
[6] = rat hepatic microsomes; cited from earlier work
[7] = female, CYP2A6-transgenic/Cyp2abfgs-null (KI)
[8] = male, CYP2A6-transgenic/Cyp2abfgs-null (KI)
[9] = two-way ANOVA with Bonferroni correction

Clc1ccc(Cl)c(-c2c(Cl)ccc(Cl)c2Cl)c1 [aS-PCB95]
Atropisomeric enrichment in intestinal content ([1]; all intestinal content samples, irrespective of sex and genotype): enriched

Oc1c(O)c(Cl)c(-c2cc(Cl)ccc2Cl)c(Cl)c1Cl [4,5-95, 3,4,6-trichloro-5-(2,5-dichlorophenyl)benzene-1,2-diol]
Rank among OH-PCB95 metabolites in intestinal content ([2]; all intestinal content samples, all exposure groups): major metabolite | concentration at 24 h [2, 7]: 1670 ± 1290 ng/g | concentration at 24 h ([2]; female, Cyp2abfgs-null (KO)): 527 ± 255 ng/g | concentration at 24 h ([2]; female): 1090 ± 492 ng/g | concentration at 24 h [2, 8]: 570 ± 376 ng/g | concentration at 24 h ([2]; male, Cyp2abfgs-null (KO)): 1030 ± 507 ng/g | concentration at 24 h ([2]; male): 1410 ± 574 ng/g

Clc1ccc(Cl)c(-c2c(Cl)ccc(Cl)c2Cl)c1 [PCB95, 2,2′,3,5′,6-pentachlorobiphenyl]
concentration at 24 h [2, 7]: 110 ± 95 ng/g | concentration at 24 h ([2]; female, Cyp2abfgs-null (KO)): 26 ± 20 ng/g | concentration at 24 h ([2]; female): 26 ± 18 ng/g | concentration at 24 h [2, 8]: 33 ± 48 ng/g | concentration at 24 h ([2]; male, Cyp2abfgs-null (KO)): 139 ± 265 ng/g | concentration at 24 h ([2]; male): 39 ± 40 ng/g | PCB95 levels in the intestinal content, FKI vs MKI mice [2, 9]: higher | PCB95 levels in the intestinal content, MKO vs MKI mice [2, 9]: significantly higher | Enantiomeric fraction (EF) of PCB95 residues in the intestinal content ([1]; FKI (n=4)): 0.44±0.03 | Enantiomeric fraction (EF) of PCB95 residues in the intestinal content ([1]; FKO (n=6)): 0.44±0.05 | Enantiomeric fraction (EF) of PCB95 residues in the intestinal content ([1]; FWT (n=6), 1 mg/kg): 0.39±0.05 and 0.39 | Enantiomeric fraction (EF) of PCB95 residues in the intestinal content ([1]; MKI (n=5)): 0.40±0.03 | Enantiomeric fraction (EF) of PCB95 residues in the intestinal content ([1]; MKO (n=7), 1 mg/kg): 0.45±0.04 and 0.45 | Enantiomeric fraction (EF) of PCB95 residues in the intestinal content ([1]; MWT (n=5)): 0.41±0.05

Oc1cc(Cl)c(-c2cc(Cl)ccc2Cl)c(Cl)c1Cl [4-95, 2,2′,3,5′,6-pentachlorobiphenyl-4-ol]
concentration at 24 h [2, 7]: 434 ± 352 ng/g | concentration at 24 h ([2]; female, Cyp2abfgs-null (KO)): 192 ± 70 ng/g | concentration at 24 h ([2]; female): 248 ± 109 ng/g | concentration at 24 h [2, 8]: 160 ± 134 ng/g | concentration at 24 h ([2]; male, Cyp2abfgs-null (KO)): 177 ± 68 ng/g | concentration at 24 h ([2]; male): 238 ± 134 ng/g | Rank among PCB95 metabolites formed by liver microsomes [3]: minor metabolites

Oc1cc(Cl)c(-c2c(Cl)ccc(Cl)c2Cl)cc1Cl [4'-95, 2,2′,3,5′,6-pentachlorobiphenyl-4′-ol]
concentration at 24 h [2, 7]: 764 ± 831 ng/g | concentration at 24 h ([2]; female, Cyp2abfgs-null (KO)): 414 ± 254 ng/g | concentration at 24 h ([2]; female): 356 ± 192 ng/g | concentration at 24 h [2, 8]: 298 ± 240 ng/g | concentration at 24 h ([2]; male, Cyp2abfgs-null (KO)): 447 ± 159 ng/g | concentration at 24 h ([2]; male): 452 ± 269 ng/g | Rank among PCB95 metabolites formed by liver microsomes [3]: minor metabolites | Rank among PCB95 metabolites formed by human liver microsomes and recombinant P450 (CYP2A6) (CYP2A6): major metabolite

Oc1cc(Cl)c(Cl)c(-c2cc(Cl)ccc2Cl)c1Cl [5-95, 2,2′,3,5′,6-pentachlorobiphenyl-5-ol]
concentration at 24 h [2, 7]: 934 ± 790 ng/g | concentration at 24 h ([2]; female, Cyp2abfgs-null (KO)): 359 ± 147 ng/g | concentration at 24 h ([2]; female): 544 ± 295 ng/g | concentration at 24 h [2, 8]: 300 ± 256 ng/g | concentration at 24 h ([2]; male, Cyp2abfgs-null (KO)): 333 ± 123 ng/g | concentration at 24 h ([2]; male): 424 ± 279 ng/g | Rank among PCB95 metabolites in feces [4]: major metabolite | Rank among PCB95 metabolites in feces [5]: major metabolite | Rank among PCB95 metabolites formed by hepatic microsomes [6]: major PCB95 metabolite | Rank among PCB95 metabolites formed by liver microsomes [3]: major PCB95 metabolite

Oc1c(Cl)cc(Cl)c(-c2cc(Cl)ccc2Cl)c1Cl [3-103, 2,4,6-trichloro-3-(2,5-dichlorophenyl)phenol]
concentration at 24 h [2, 7]: 17 ± 11 ng/g | concentration at 24 h ([2]; female, Cyp2abfgs-null (KO)): 14 ± 7 ng/g | concentration at 24 h ([2]; female): 14 ± 6 ng/g | concentration at 24 h [2, 8]: 6 ± 6 ng/g | concentration at 24 h ([2]; male, Cyp2abfgs-null (KO)): 6 ± 2 ng/g | concentration at 24 h ([2]; male): 7 ± 4 ng/g
